Measured values reported in PubChem BioAssay (NCI).
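Results reflect a 48-hour exposure of cells in 96-well plates to compound at five concentrations. The concentration for 50% growth inhibition is given as GI50. The concentration for full growth arrest is given as TGI.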

Assays:
Test in all cases: NCI-60 cell line screen, 48 h
HCT-116 colon = test system: HCT-116 colon
HOP-62 NSCLC = test system: HOP-62 NSCLC
HOP-92 NSCLC = test system: HOP-92 NSCLC
K-562 leukemia = test system: K-562 leukemia
OVCAR-4 ovarian = test system: OVCAR-4 ovarian
SF-295 CNS = test system: SF-295 CNS
SF-539 CNS = test system: SF-539 CNS
SK-MEL-2 melanoma = test system: SK-MEL-2 melanoma
SNB-75 CNS = test system: SNB-75 CNS
TK-10 renal = test system: TK-10 renal
MOLT-4 leukemia = test system: MOLT-4 leukemia
OVCAR-8 ovarian = test system: OVCAR-8 ovarian
786-0 renal = test system: 786-0 renal
A498 renal = test system: A498 renal
A549 NSCLC = test system: A549 NSCLC
ACHN renal = test system: ACHN renal
BT-549 breast = test system: BT-549 breast
CAKI-1 renal = test system: CAKI-1 renal
COLO 205 colon = test system: COLO 205 colon
DU-145 prostate = test system: DU-145 prostate
EKVX NSCLC = test system: EKVX NSCLC
HCC-2998 colon = test system: HCC-2998 colon
HCT-15 colon = test system: HCT-15 colon
HS 578T breast = test system: HS 578T breast
HT29 colon = test system: HT29 colon
IGROV1 ovarian = test system: IGROV1 ovarian
KM12 colon = test system: KM12 colon
LOX IMVI melanoma = test system: LOX IMVI melanoma
M14 melanoma = test system: M14 melanoma
MALME-3M melanoma = test system: MALME-3M melanoma
MCF7 breast = test system: MCF7 breast
MDA-MB-231 breast = test system: MDA-MB-231 breast
MDA-MB-435 = test system: MDA-MB-435
NCI-H226 lung = test system: NCI-H226 lung
NCI-H23 lung = test system: NCI-H23 lung
NCI-H460 lung = test system: NCI-H460 lung
NCI-H522 lung = test system: NCI-H522 lung
NCI/ADR-RES ovarian = test system: NCI/ADR-RES ovarian
OVCAR-3 ovarian = test system: OVCAR-3 ovarian
OVCAR-5 ovarian = test system: OVCAR-5 ovarian
PC-3 prostate = test system: PC-3 prostate
RPMI-8226 leukemia = test system: RPMI-8226 leukemia
RXF 393 renal = test system: RXF 393 renal
SF-268 CNS = test system: SF-268 CNS
SK-MEL-28 melanoma = test system: SK-MEL-28 melanoma
SK-MEL-5 melanoma = test system: SK-MEL-5 melanoma
SK-OV-3 ovarian = test system: SK-OV-3 ovarian
SN12C renal = test system: SN12C renal
SNB-19 CNS = test system: SNB-19 CNS
SW-620 colon = test system: SW-620 colon
T-47D breast = test system: T-47D breast
U251 CNS = test system: U251 CNS
UACC-257 melanoma = test system: UACC-257 melanoma
UACC-62 melanoma = test system: UACC-62 melanoma
UO-31 renal = test system: UO-31 renal
CCRF-CEM leukemia = test system: CCRF-CEM leukemia
HL-60(TB) leukemia = test system: HL-60(TB) leukemia

## O=[N+]([O-])c1ccc(C2CC3(c4ccccc4)ON=C(c4ccccc4)N3c3ccccc3S2)cc1 (stereo not given)
HCT-116 colon
  GI50: 19.7 µM
HOP-62 NSCLC
  GI50: 58.9 µM
HOP-92 NSCLC
  GI50: 78.2 µM
K-562 leukemia
  GI50: 83.6 µM
OVCAR-4 ovarian
  GI50: 76.1 µM
SF-295 CNS
  GI50: 80.8 µM
SF-539 CNS
  GI50: 68.9 µM
SK-MEL-2 melanoma
  GI50: 40.3 µM
SNB-75 CNS
  GI50: 37.4 µM
TK-10 renal
  GI50: 14.9 nM
  TGI: 7.95 µM

## C[C@]12CCc3sc(Nc4ccc(F)cc4F)nc3C1=CC[C@@H]1[C@@H]2CC[C@]2(C)C(=O)CC[C@@H]12
K-562 leukemia
  GI50: 2.43 µM
  TGI: > 100 µM
MOLT-4 leukemia
  GI50: 2440 nM
  TGI: > 100 µM
OVCAR-8 ovarian
  GI50: 2960 nM
  TGI: > 100 µM

## CCN(CC)CCOc1ccc(Cc2ccccc2)cc1
786-0 renal
  GI50: 27.6 µM
  TGI: > 100000 nM
A498 renal
  GI50: 19.3 µM
  TGI: 87 µM
A549 NSCLC
  GI50: 49.8 µM
  TGI: > 100 µM
ACHN renal
  GI50: 47.2 µM
  TGI: > 100 µM
BT-549 breast
  GI50: 31.4 µM
  TGI: > 100 µM
CAKI-1 renal
  GI50: 29.5 µM
  TGI: > 100 µM
COLO 205 colon
  GI50: 16.1 µM
  TGI: 31.5 µM
DU-145 prostate
  GI50: 32.7 µM
  TGI: > 100000 nM
EKVX NSCLC
  GI50: 26.4 µM
  TGI: > 100 µM
HCC-2998 colon
  GI50: 38.7 µM
  TGI: > 100 µM
HCT-116 colon
  GI50: 34.8 µM
  TGI: > 100000 nM
HCT-15 colon
  GI50: 15.1 µM
  TGI: 53.9 µM
HOP-62 NSCLC
  GI50: 32.4 µM
  TGI: > 100 µM
HOP-92 NSCLC
  GI50: 5.61 µM
  TGI: 51.1 µM
HS 578T breast
  GI50: 13.6 µM
  TGI: 52.4 µM
HT29 colon
  GI50: 12.3 µM
  TGI: 33.9 µM
IGROV1 ovarian
  GI50: 24 µM
  TGI: 74.6 µM
KM12 colon
  GI50: 25.6 µM
  TGI: > 100000 nM
LOX IMVI melanoma
  GI50: 15.2 µM
  TGI: 33.3 µM
M14 melanoma
  GI50: 17.3 µM
  TGI: 34.6 µM
MALME-3M melanoma
  GI50: 17.2 µM
  TGI: 43.1 µM
MCF7 breast
  GI50: 27.6 µM
  TGI: > 100000 nM
MDA-MB-231 breast
  GI50: 28.2 µM
  TGI: > 100 µM
MDA-MB-435
  GI50: 18.5 µM
  TGI: 44.2 µM
NCI-H226 lung
  GI50: 69.7 µM
  TGI: > 100 µM
NCI-H23 lung
  GI50: 33.4 µM
  TGI: > 100 µM
NCI-H460 lung
  GI50: 22.9 µM
  TGI: 62.1 µM
NCI-H522 lung
  GI50: 18.4 µM
  TGI: > 100 µM
NCI/ADR-RES ovarian
  GI50: 26.2 µM
  TGI: > 100 µM
OVCAR-3 ovarian
  GI50: 26.9 µM
  TGI: > 100000 nM
OVCAR-4 ovarian
  GI50: 33.5 µM
  TGI: > 100000 nM
OVCAR-5 ovarian
  GI50: 28.5 µM
  TGI: > 100 µM
OVCAR-8 ovarian
  GI50: 60600 nM
  TGI: > 100 µM
PC-3 prostate
  GI50: 26.2 µM
  TGI: > 100000 nM
RPMI-8226 leukemia
  GI50: 20.7 µM
  TGI: 76.1 µM
RXF 393 renal
  GI50: 24.8 µM
  TGI: 88.8 µM
SF-268 CNS
  GI50: 35.3 µM
  TGI: > 100000 nM
SF-295 CNS
  GI50: 13.2 µM
  TGI: 31.4 µM
SF-539 CNS
  GI50: 32.1 µM
  TGI: > 100 µM
SK-MEL-2 melanoma
  GI50: 13.9 µM
  TGI: 50.5 µM
SK-MEL-28 melanoma
  GI50: 38.5 µM
  TGI: > 100 µM
SK-MEL-5 melanoma
  GI50: 15.1 µM
  TGI: 28.5 µM
SK-OV-3 ovarian
  GI50: 44 µM
  TGI: > 100 µM
SN12C renal
  GI50: 48.8 µM
  TGI: > 100 µM
SNB-19 CNS
  GI50: 68.7 µM
  TGI: > 100 µM
SNB-75 CNS
  GI50: 19 µM
  TGI: 94.9 µM
SW-620 colon
  GI50: 17.4 µM
  TGI: 42.4 µM
T-47D breast
  GI50: 25.5 µM
  TGI: > 100 µM
TK-10 renal
  GI50: 23300 nM
  TGI: 92.9 µM
U251 CNS
  GI50: 26.5 µM
  TGI: > 100 µM
UACC-257 melanoma
  GI50: 22.5 µM
  TGI: 63 µM
UACC-62 melanoma
  GI50: 30.8 µM
  TGI: > 100 µM
UO-31 renal
  GI50: 18.4 µM
  TGI: > 100000 nM

## CCCCCC(=C/c1ccccc1)/C=N/N=C(N)N
786-0 renal
  GI50: 1.6 µM
  TGI: 3000 nM
A498 renal
  GI50: 0.621 µM
  TGI: 1.99 µM
A549 NSCLC
  GI50: 1.73 µM
  TGI: 3.23 µM
ACHN renal
  GI50: 1.69 µM
  TGI: 3.28 µM
BT-549 breast
  GI50: 1.65 µM
  TGI: 3.02 µM
CAKI-1 renal
  GI50: 5.16 µM
  TGI: 21.2 µM
CCRF-CEM leukemia
  GI50: 2000 nM
  TGI: 5.04 µM
COLO 205 colon
  GI50: 1.65 µM
  TGI: 3.17 µM
DU-145 prostate
  GI50: 1.57 µM
  TGI: 2940 nM
EKVX NSCLC
  GI50: 4.03 µM
  TGI: 19.1 µM
HCT-116 colon
  GI50: 1.32 µM
  TGI: 2720 nM
HCT-15 colon
  GI50: 1.99 µM
  TGI: 5 µM
HL-60(TB) leukemia
  GI50: 451 nM
  TGI: 1960 nM
HOP-62 NSCLC
  GI50: 1.63 µM
  TGI: 3.31 µM
HOP-92 NSCLC
  GI50: 1.45 µM
  TGI: 3.19 µM
HS 578T breast
  GI50: 1.8 µM
  TGI: 4.18 µM
HT29 colon
  GI50: 1.58 µM
  TGI: 3.27 µM
IGROV1 ovarian
  GI50: 1.32 µM
  TGI: 2.72 µM
KM12 colon
  GI50: 1.43 µM
  TGI: 2820 nM
LOX IMVI melanoma
  GI50: 1.44 µM
  TGI: 3.02 µM
M14 melanoma
  GI50: 1.56 µM
  TGI: 3.09 µM
MALME-3M melanoma
  GI50: 1.51 µM
  TGI: 3.12 µM
MCF7 breast
  GI50: 1.34 µM
  TGI: 2740 nM
MDA-MB-435
  GI50: 1.7 µM
  TGI: 3.28 µM
MOLT-4 leukemia
  GI50: 1530 nM
  TGI: 3.51 µM
NCI-H226 lung
  GI50: 2.2 µM
  TGI: 5.51 µM
NCI-H23 lung
  GI50: 1.47 µM
  TGI: 3.12 µM
NCI-H460 lung
  GI50: 1.57 µM
  TGI: 3.13 µM
NCI/ADR-RES ovarian
  GI50: 1.53 µM
  TGI: 3.3 µM
OVCAR-3 ovarian
  GI50: 1.27 µM
  TGI: 2560 nM
OVCAR-4 ovarian
  GI50: 1.46 µM
  TGI: 2840 nM
OVCAR-5 ovarian
  GI50: 1.74 µM
  TGI: 3.69 µM
OVCAR-8 ovarian
  GI50: 1740 nM
  TGI: 3.54 µM
PC-3 prostate
  GI50: 1.4 µM
  TGI: 2920 nM
RPMI-8226 leukemia
  GI50: 1.42 µM
  TGI: 3.55 µM
RXF 393 renal
  GI50: 1.72 µM
  TGI: 3.15 µM
SF-268 CNS
  GI50: 1.45 µM
  TGI: 2990 nM
SF-295 CNS
  GI50: 1.67 µM
  TGI: 3.49 µM
SF-539 CNS
  GI50: 1.95 µM
  TGI: 3.71 µM
SK-MEL-2 melanoma
  GI50: 1.7 µM
  TGI: 3.2 µM
SK-MEL-28 melanoma
  GI50: 1.65 µM
  TGI: 3.06 µM
SK-MEL-5 melanoma
  GI50: 1.66 µM
  TGI: 3.04 µM
SK-OV-3 ovarian
  GI50: 2.95 µM
  TGI: 10.8 µM
SNB-19 CNS
  GI50: 1.85 µM
  TGI: 4.15 µM
SNB-75 CNS
  GI50: 1.35 µM
  TGI: 2.7 µM
SW-620 colon
  GI50: 1.52 µM
  TGI: 3.16 µM
T-47D breast
  GI50: 1.65 µM
  TGI: 3.62 µM
TK-10 renal
  GI50: 1750 nM
  TGI: 3.32 µM
U251 CNS
  GI50: 1.7 µM
  TGI: 3.18 µM
UACC-257 melanoma
  GI50: 1.45 µM
  TGI: 2.83 µM
UO-31 renal
  GI50: 1.19 µM
  TGI: 2500 nM
